Data taken from US11999699B2, “Substituted pyrazole amides” (GRUENENTHAL GMBH, priority 2021, dated 2024).

Target: T1, human NaV1.8 (Homo sapiens, UniProt Q9Y5Y9)
T1 construct: The following NaV1.8 recombinant cell line was used for recordings: HEK-NaV1.8 (NM 006514.1); expressed in transfected cells; host or cells: HEK (recombinant cell line HEK-NaV1.8)
Test: Electrophysiology: automated whole-cell voltage-clamp (patch clamp, Qube384) recordings of sodium currents in HEK-NaV1.8 cells
Type: cell-based
Details: potency data either taken from inactivated or resting state, read-out: Potency category (human NaV1.8 IC50)
Summary of the method: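 Automated whole-cell patch clamp at room temperature on HEK cells expressing human NaV1.8, with 0.3% DMSO vehicle controls. State-dependent protocol from −120 mV tested resting (P1) and half-inactivated (P2, 4 s at V1/2) channels, plus 40-pulse trains at 10 and 20 Hz. Values after ~12 min compound exposure were normalised to baseline and corrected for vehicle run-down; IC50 from a 4-parameter logistic fit, taken from inactivated or resting state.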

T1 sequence (Q9Y5Y9 whole entry): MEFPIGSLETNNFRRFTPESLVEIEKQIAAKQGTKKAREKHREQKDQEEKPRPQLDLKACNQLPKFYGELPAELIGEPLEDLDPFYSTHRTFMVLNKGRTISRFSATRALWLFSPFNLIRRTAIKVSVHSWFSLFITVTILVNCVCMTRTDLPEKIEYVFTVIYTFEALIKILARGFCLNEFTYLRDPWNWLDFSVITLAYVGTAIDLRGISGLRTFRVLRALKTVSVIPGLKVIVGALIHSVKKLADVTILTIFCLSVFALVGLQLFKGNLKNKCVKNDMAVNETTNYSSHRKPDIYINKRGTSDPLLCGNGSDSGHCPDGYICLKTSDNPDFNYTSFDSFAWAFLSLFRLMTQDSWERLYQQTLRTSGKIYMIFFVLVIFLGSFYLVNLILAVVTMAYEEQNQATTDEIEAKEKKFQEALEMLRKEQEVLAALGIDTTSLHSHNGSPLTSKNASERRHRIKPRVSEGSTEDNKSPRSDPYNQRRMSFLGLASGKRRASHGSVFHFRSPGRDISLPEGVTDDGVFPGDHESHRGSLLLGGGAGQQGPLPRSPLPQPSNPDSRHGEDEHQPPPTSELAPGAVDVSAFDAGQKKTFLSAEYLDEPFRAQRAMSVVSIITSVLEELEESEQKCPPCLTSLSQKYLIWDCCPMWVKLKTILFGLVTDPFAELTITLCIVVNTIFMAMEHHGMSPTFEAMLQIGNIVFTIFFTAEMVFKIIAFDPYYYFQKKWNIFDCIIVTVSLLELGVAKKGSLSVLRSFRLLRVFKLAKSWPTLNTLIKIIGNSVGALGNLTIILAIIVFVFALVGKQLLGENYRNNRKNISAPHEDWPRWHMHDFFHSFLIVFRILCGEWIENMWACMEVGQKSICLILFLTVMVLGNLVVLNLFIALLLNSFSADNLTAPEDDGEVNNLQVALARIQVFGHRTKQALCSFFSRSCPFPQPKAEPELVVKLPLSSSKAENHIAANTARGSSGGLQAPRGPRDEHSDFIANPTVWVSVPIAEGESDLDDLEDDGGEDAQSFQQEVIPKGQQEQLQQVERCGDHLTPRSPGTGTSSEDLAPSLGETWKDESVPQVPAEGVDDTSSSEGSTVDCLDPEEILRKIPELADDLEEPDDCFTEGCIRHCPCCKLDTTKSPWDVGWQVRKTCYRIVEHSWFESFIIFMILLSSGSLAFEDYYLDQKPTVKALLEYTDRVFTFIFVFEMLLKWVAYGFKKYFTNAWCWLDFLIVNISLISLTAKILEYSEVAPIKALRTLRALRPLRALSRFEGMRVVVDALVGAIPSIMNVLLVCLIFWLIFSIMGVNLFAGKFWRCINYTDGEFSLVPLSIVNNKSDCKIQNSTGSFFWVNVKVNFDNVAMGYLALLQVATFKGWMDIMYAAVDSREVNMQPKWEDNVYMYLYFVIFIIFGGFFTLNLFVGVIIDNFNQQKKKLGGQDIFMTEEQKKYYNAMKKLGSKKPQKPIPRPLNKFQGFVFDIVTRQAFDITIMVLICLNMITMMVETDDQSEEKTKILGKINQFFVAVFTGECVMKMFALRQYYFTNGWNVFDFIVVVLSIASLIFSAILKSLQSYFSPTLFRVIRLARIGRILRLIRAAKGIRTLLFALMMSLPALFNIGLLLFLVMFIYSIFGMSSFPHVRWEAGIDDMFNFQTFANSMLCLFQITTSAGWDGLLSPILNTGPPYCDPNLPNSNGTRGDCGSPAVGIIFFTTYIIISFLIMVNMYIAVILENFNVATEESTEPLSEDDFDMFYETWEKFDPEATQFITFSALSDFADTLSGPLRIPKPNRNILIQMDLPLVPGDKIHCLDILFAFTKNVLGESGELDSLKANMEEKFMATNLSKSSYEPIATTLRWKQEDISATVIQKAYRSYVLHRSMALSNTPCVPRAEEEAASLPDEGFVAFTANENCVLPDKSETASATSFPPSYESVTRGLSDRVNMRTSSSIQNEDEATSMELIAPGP
T1 sequence (Q9NY72 23-215 partner): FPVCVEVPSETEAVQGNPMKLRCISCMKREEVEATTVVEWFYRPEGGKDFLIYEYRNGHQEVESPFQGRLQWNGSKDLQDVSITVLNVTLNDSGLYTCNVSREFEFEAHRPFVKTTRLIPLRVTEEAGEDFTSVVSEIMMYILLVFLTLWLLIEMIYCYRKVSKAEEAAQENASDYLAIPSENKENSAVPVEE

SMILES	IC50 [nM]
Cc1c(OC(C)(F)F)nn(CC2CC(F)(F)C2)c1C(=O)Nc1ccnc(C(N)=O)c1 [SC-309, 4-(1-((3,3-difluorocyclobutyl)methyl)-3-(1,1-difluoroethoxy)-4-methyl-1H-pyrazole-5-carboxamido)picolinamide]	1000 to 10000
Cc1nn(C[C@@H]2CCC(F)(F)C2)c(C(=O)Nc2ccnc(C(N)=O)n2)c1C(F)(F)F [SC-248R]	1000 to 10000
Cc1c(C(C)(F)F)nn([C@H](C)C2CC(F)(F)C2)c1C(=O)Nc1ccnc(S(C)(=O)=O)c1 [SC-222b]	1000 to 10000
CS(=O)(=O)c1cc(NC(=O)c2c(C(F)(F)F)cnn2CC2CCC(F)(F)CC2)ccn1 [SC-14, 2-[(4,4-difluorocyclohexyl)methyl]-N-(2-methylsulfonylpyridin-4-yl)-4-(trifluoromethyl)pyrazole-3-carboxamide]	1000 to 10000
Cc1cc(NC(=O)c2c(C(F)(F)F)c(C)nn2CC2CCC(F)(F)CC2)cc(C(N)=O)n1 [SC-267, 4-(1-((4,4-difluorocyclohexyl)methyl)-3-methyl-4-(trifluoromethyl)-1H-pyrazole-5-carboxamido)-6-methylpicolinamide]	100 to 1000
Cc1nn(C[C@@H]2CCC(F)(F)C2)c(C(=O)Nc2cncc(C(N)=O)c2)c1C(F)(F)F [SC-247R]	1000 to 10000
NS(=O)(=O)c1cccc(NC(=O)c2c(C(F)(F)F)cnn2CC2CCC(F)(F)CC2)c1 [SC-43, 2-[(4,4-difluorocyclohexyl)methyl]-N-(3-sulfamoylphenyl)-4-(trifluoromethyl)pyrazole-3-carboxamide]	100 to 1000
Cc1nn(CC2CCC(F)(F)CC2)c(C(=O)Nc2ncc(C(N)=O)o2)c1C(F)(F)F [SC-256, 2-(1-((4,4-difluorocyclohexyl)methyl)-3-methyl-4-(trifluoromethyl)-1H-pyrazole-5-carboxamido)oxazole-5-carboxamide]	1000 to 10000
Cc1nn(CC2COC2)c(C(=O)Nc2cccc(S(C)(=O)=O)c2)c1C(F)(F)F [SC-234, 3-methyl-N-(3-(methyIsulfonyl)phenyl)-1-(oxetan-3-yImethyl)-4-(trifluoromethyl)-1H-pyrazole-5-carboxamide]	1000 to 10000
COC1(Cn2nc(C(C)(F)F)c(C)c2C(=O)Nc2ccnc(S(N)(=O)=O)c2)CC1 [SC-308, 3-(1,1-difluoroethyl)-1-((1-methoxycyclopropyl)methyl)-4-methyl-N-(2-sulfamoylpyridin-4-yl)-1H-pyrazole-5-carboxamide]	1000 to 10000
NC(=O)c1cc(NC(=O)c2c(Cl)c(C3CC3)nn2CC2CCOCC2)ccn1 [SC-261, 4-(4-chloro-3-cyclopropyl-1-((tetrahydro-2H-pyran-4-yl)methyl)-1H-pyrazole-5-carboxamido)picolinamide]	100 to 1000
Cc1cnn(CC2CCCCC2)c1C(=O)Nc1cccc(S(C)(=O)=O)c1 [SC-37, 2-(cyclohexylmethyl)-4-methyl-N-(3-methylsulfonylphenyl)pyrazole-3-carboxamide]	1000 to 10000
CC(C1CCCCC1)n1ncc(C(F)(F)F)c1C(=O)Nc1cccc(S(C)(=O)=O)c1 (stereo not shown) [SC-29, 2-(1-cyclohexylethyl)-N-(3-methylsulfonylphenyl)-4-(trifluoromethyl)pyrazole-3-carboxamide]	100 to 1000

Results, then the molecule that gave them:

IC50 [nM]	SMILES
≤ 100	NS(=O)(=O)c1cc(NC(=O)c2c(C(F)(F)F)c(C3CC3)nn2CC2CCC(F)(F)CC2)ccn1 [SC-246, 3-cyclopropyl-1-((4,4-difluorocyclohexyl)methyl)-N-(2-sulfamoylpyridin-4-yl)-4-(trifluoromethyl)-1H-pyrazole-5-carboxamide]
100 to 1000	C[C@@H]1CC[C@H](Cn2nc(C3CC3)c(C(F)(F)F)c2C(=O)Nc2ccnc(C(N)=O)c2)O1 (single isomer, unassigned) [SC-286b]
100 to 1000	Cc1c([C@H](C)C(F)F)nn(CC2CC(F)(F)C2)c1C(=O)Nc1ccnc(C(N)=O)c1 [SC-192b]
≤ 100	CS(=O)(=O)c1cc(NC(=O)c2c(C(F)(F)F)c(C3CC3)nn2C[C@@H]2CCO[C@H]2C(F)(F)F)ccn1 (racemic) [SC-150c]
100 to 1000	Cc1cnc(C(N)=O)cc1NC(=O)c1c(C(F)(F)F)c(C)nn1CC1CCC(F)(F)CC1 [SC-249, 4-(1-((4,4-difluorocyclohexyl)methyl)-3-methyl-4-(trifluoromethyl)-1H-pyrazole-5-carboxamido)-5-methyipicolinamide]
≤ 100	NC(=O)c1cc(NC(=O)c2c(C(F)(F)F)c(C3CC3)nn2CC2CCCCO2)ccn1 (single isomer, unassigned) [SC-258b]
≤ 100	COc1nn(CC2CCC(F)(F)C2)c(C(=O)Nc2ccnc(C(N)=O)c2)c1C(F)(F)F (stereo not shown) [SC-273, 4-(1-((3,3-difluorocyclopentyl)methyl)-3-methoxy-4-(trifluoromethyl)-lH-pyrazole-5-carboxamido)picolinamide]
≤ 100	Cc1c(C(F)(F)F)nn(CC2CCC(F)(F)CC2)c1C(=O)Nc1ccnc(S(N)(=O)=O)c1 [SC-320, 1-((4,4-difluorocyclohexyl)methyl)-4-methyl-N-(2-sulfamoylpyridin-4-yl)-3-(trifluoromethyl)-1H-pyrazole-5-carboxamide]
≤ 100	CC(F)(F)c1nn(CC2CCC(F)(F)C2)c(C(=O)Nc2ccnc(C(N)=O)c2)c1Cl (single isomer, unassigned) [SC-149b]
≤ 100	CC1CCCC(Cn2nc(C3CC3)c(C(F)(F)F)c2C(=O)Nc2ccnc(C(N)=O)c2)O1 (stereo not shown) [SC-143, 4-(3-cyclopropyl-1-((6-methyltetrahydro-2H-pyran-2-yl)methyl)-4-(trifluoromethyl)-1H-pyrazole-5-carboxamido)picolinamide]
≤ 100	Cc1c(C(F)(F)F)nn(CC2CCC(F)(F)C2)c1C(=O)Nc1ccnc(S(N)(=O)=O)c1 (single isomer, unassigned) [SC-254a]
100 to 1000	Cc1c(C(C)(F)F)nn([C@@H](C)C2CC(F)(F)C2)c1C(=O)Nc1ccnc(S(C)(=O)=O)c1 [SC-222a]
100 to 1000	NC(=O)c1cc(NC(=O)c2c(C(F)(F)F)c(C3CC3)nn2CC2CC2(F)F)ccn1 (single isomer, unassigned) [SC-279b]
≤ 100	Cc1c(C(F)(F)F)nn(CC2CCC(F)(F)C2)c1C(=O)Nc1ccnc(S(N)(=O)=O)c1 (single isomer, unassigned) [SC-254b]
≤ 100	Cc1c(C(C)(F)F)nn(CC2C[C@H]2C)c1C(=O)Nc1ccnc(S(N)(=O)=O)c1 (stereo partly shown) [SC-314, 3-(1,1-difluoroethyl)-4-methyl-1-((2-methyleyelopropyl)methyl)-N-(2-sulfamoylpyridin-4-yl)-lH-pyrazole-5-carboxamide]
≤ 100	NC(=O)c1cc(NC(=O)c2c(C(F)(F)F)c(C3CC3)nn2CC2CCCOC2)ccn1 (single isomer, unassigned) [SC-145b, 4-(3-Cyclopropyl-1-((tetrahydro-2H-pyran-3-yl)methyl)-4-(trifluoromethyl)-1H-pyrazole-5-carboxamido)picolinamide]
≤ 100	NC(=O)c1cc(NC(=O)c2c(C(F)(F)F)c(C3CC3)nn2C[C@@H]2CCO[C@@H]2C(F)(F)F)ccn1 (single isomer, unassigned) [SC-147b]
≤ 100	NC(=O)c1cc(NC(=O)c2c(C(F)(F)F)c(C3CC3)nn2CC2CC(F)(F)C2(F)F)ccn1 (single isomer, unassigned) [SC-291b]
